Test results: patent US6482921B1, “Uridyl peptide antibiotic (UPA) derivatives, their synthesis and use” (Essential Therapeutics, Inc., priority 1999, dated 2002)
Values after ≈ are worked out from the molar mass of the structure shown.

Columns and labels:
[1] = tested on: Escherichia Coli MC 4100 AcrAB UPA3r; assay: MIC broth microdilution, E. coli MC 4100 AcrAB UPA3r (ΔAcrAB, UPA resistant); assay type: cell-based; conditions: for MIC (μg/ml) Broth microdilution: E. coli AcrAB UPA3^r
[2] = tested on: Escherichia Coli MC 4100 AcrAB; assay: MIC broth microdilution, E. coli MC 4100 AcrAB (ΔAcrAB); assay type: cell-based; conditions: for MIC (μg/ml) Broth microdilution: E. coli AcrAB
[3] = tested on: Pseudomonas aeruginosa PAM 1020; assay: MIC broth microdilution, P. aeruginosa PAM 1020 (wild type); assay type: cell-based; conditions: for MIC (μg/ml) Broth microdilution: P. aeruginosa PAM 1020
[4] = tested on: Pseudomonas aeruginosa PAM 1135; assay: MIC broth microdilution, P. aeruginosa PAM 1135 (high level UPA resistance); assay type: cell-based; conditions: for MIC (μg/ml) Broth microdilution: P. aeruginosa PAM 1135 UPA1^r
[5] = tested on: Staphylococcus aureus 8325-4; assay: MIC broth microdilution, S. aureus 8325-4 (wild type); assay type: cell-based; conditions: for MIC (μg/ml) Broth microdilution: S. aureus 8325-4
[6] = tested on: Pseudomonas aeruginosa PAM 1154; assay: MIC broth microdilution, P. aeruginosa PAM 1154 (OprM::Hg); assay type: cell-based; conditions: for MIC (μg/ml) Broth microdilution: P. aeruginosa PAM 1154 OprM::Hg
[7] = tested on: mammalian enzymes that catalyze the formation of lipid-linked saccharides; conditions: background statement; cited from earlier work
[8] = biological target: bacterial translocase I (phospho-N-acetylmuramyl-pentapeptide translocase) (Escherichia coli, UniProt P0A6W3); conditions: background statement; cited from earlier work
bacterial translocase I (phospho-N-acetylmuramyl-pentapeptide translocase), sequence (P0A6W3 whole entry): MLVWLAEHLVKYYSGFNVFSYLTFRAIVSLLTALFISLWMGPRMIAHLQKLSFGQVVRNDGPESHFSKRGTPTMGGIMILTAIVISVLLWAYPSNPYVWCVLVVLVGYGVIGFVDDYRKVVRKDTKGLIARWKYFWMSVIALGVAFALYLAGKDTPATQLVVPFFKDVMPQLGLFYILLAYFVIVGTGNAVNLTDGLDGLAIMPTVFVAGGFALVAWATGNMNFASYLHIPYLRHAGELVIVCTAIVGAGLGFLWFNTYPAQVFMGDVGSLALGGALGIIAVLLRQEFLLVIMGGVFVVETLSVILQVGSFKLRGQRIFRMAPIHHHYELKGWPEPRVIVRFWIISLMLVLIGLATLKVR

[9] = tested on: Staphylococcus aureus ATCC 29213; assay: MIC broth microdilution, S. aureus ATCC 29213 (wild type); assay type: cell-based; conditions: for MIC (μg/ml) Broth microdilution: S. aureus ATCC 29213
Escherichia Coli MC 4100 = assay: MIC broth microdilution, E. coli MC 4100 (wild type); assay type: cell-based; conditions: for MIC (μg/ml) Broth microdilution: E. coli MC 4100
[10] = tested on: Mycobacterium tuberculosis TN913; assay: MIC agar dilution, M. tuberculosis TN913; assay type: cell-based
[11] = tested on: Mycobacterium fortuitum ATCC 6841; assay: MIC broth microdilution, M. fortuitum ATCC 6841; conditions: 72 hours at 35° C., CAMHB
[12] = tested on: Mycobacterium tuberculosis H37Rv; assay: MIC agar dilution, M. tuberculosis H37Rv; assay type: cell-based
[13] = tested on: Pseudomonas aeruginosa PAM 1323; assay: MIC broth microdilution, P. aeruginosa PAM 1323 (medium level UPA resistance); assay type: cell-based
[14] = tested on: Pasteurella multocida pm002; assay: MIC broth microdilution, P. multocida pm002 (wild type); assay type: cell-based
[15] = tested on: Mycobacterium smegmatis ATCC 19420; assay: MIC broth microdilution, M. smegmatis ATCC 19420; conditions: 72 hours at 35° C., CAMHB
E. coli translocase = E. coli translocase (Escherichia coli, UniProt P0A6W3)
E. coli translocase, sequence (P0A6W3 whole entry): as above

bacteria = assay: Antibacterial activity, stated in words; assay type: cell-based

Compound | MIC (μg/ml) Broth microdilution [1] [µg/mL] | MIC (μg/ml) Broth microdilution [2] [µg/mL] | MIC (μg/ml) Broth microdilution [3] [µg/mL] | MIC (μg/ml) Broth microdilution [4] [µg/mL] | MIC (μg/ml) Broth microdilution [5] [µg/mL] | MIC (μg/ml) Broth microdilution [6] [µg/mL] | MIC (μg/ml) Broth microdilution [9] [µg/mL] | MIC (μg/ml) Broth microdilution (Escherichia Coli MC 4100) [µg/mL] | MIC TN913 (SENSITIVE) [10] [µg/mL] | MIC Broth microdilution M. fortuitum ATCC 6841 [11] [µg/mL] | MIC H37RV (SENSITIVE) [12] [µg/mL] | MIC (μg/ml) Broth microdilution [13] [µg/mL] | MIC (μg/ml) Broth microdilution [14] [µg/mL] | MIC Broth microdilution M. smegmatis ATCC19420 [15] [µg/mL] | antibacterial / biological activity (in words) (bacteria) | further results
amphomycin [reference compound] | 16 | 4 | 64 | 512 | >512 | 4 | >512 | 256 |  |  |  |  |  |  |  | action on mammalian enzymes / lipid-linked saccharide formation (in words) [7]: also target mammalian enzymes; translocase inhibition (in words) [8]: translocase inhibitors
CC(N)C(=O)N(C)C(C)C(NC(=O)C(Cc1ccc(-c2ccccc2)cc1)NC(=O)NC(Cc1c[nH]c2ccccc12)C(=O)O)C(=O)NCC1CC(O)C(n2ccc(=O)[nH]c2=O)O1 [Compound 155, 1-[5′-[(2S,3S)-N^3-L-Alanyl-N^2-[N-[[(1S)-1-carboxy-2-indol-3-ylethyl)carbamoyl]-L-4-biphenylalanyl]-N^3-methyl-2,3-diaminobutyramidol-3′,5′-dideoxy-α-L-arabinofuranosyl]uracil] | 512 (≈ 591 µM) | 8 (≈ 9.24 µM) | 256 (≈ 296 µM) | 512 (≈ 591 µM) | 512 (≈ 591 µM) | 64 (≈ 73.9 µM) | >512 | 512 (≈ 591 µM) | 10 (≈ 11.5 µM) | 32 (≈ 37 µM) | 10 (≈ 11.5 µM) | 256 (≈ 296 µM) | 32 (≈ 37 µM) | 4 (≈ 4.62 µM) |  | 
Tetrahydropacidamycin D [Compound 4] | 64 | 2 | 8 | 512 | >512 | 4 | >512 | 256 |  |  |  |  |  |  | exhibited antibacterial activity | inhibition of translocase I (in words) (E. coli translocase; species of enzyme not given): inhibited translocase I
C[C@H](N)C(=O)N(C)[C@@H](C)[C@H](NC(=O)[C@H](C)NC(=O)N[C@@H](Cc1c[nH]c2ccccc12)C(=O)O)C(=O)NC[C@H]1C[C@@H](O)[C@H](n2ccc(=O)[nH]c2=O)O1 [Compound 34] |  |  |  |  |  |  |  |  |  |  |  |  |  |  | comparable biological activity to dihydropacidamycin D | MIC ([1]; Escherichia coli, read-out: MIC (μg/ml) Broth microdilution): 16 µg/mL (≈ 22.4 µM); MIC ([2]; Escherichia coli, COLIMC4100ACRAB, read-out: MIC (μg/ml) Broth microdilution): 2 µg/mL (≈ 2.8 µM); MIC ([3]; Pseudomonas aeruginosa, PAM1020, read-out: MIC (μg/ml) Broth microdilution): 64 µg/mL (≈ 89.7 µM); MIC ([4]; Pseudomonas aeruginosa, PAM1135, read-out: MIC (μg/ml) Broth microdilution): > 512 µg/mL; MIC ([5]; Staphylococcus aureus, 83254, read-out: MIC (μg/ml) Broth microdilution): > 512 µg/mL; MIC ([6]; Pseudomonas aeruginosa, PAM1154, read-out: MIC (μg/ml) Broth microdilution): 4 µg/mL (≈ 5.6 µM); MIC ([9]; Staphylococcus aureus, ATCC29213, read-out: MIC (μg/ml) Broth microdilution): 512 µg/mL (≈ 717 µM); MIC (Escherichia Coli MC 4100; Escherichia coli, COLIMC4100, read-out: MIC (μg/ml) Broth microdilution): 128 µg/mL (≈ 179 µM)
CC(C)CC(N)C(=O)N(C)C(C)C(NC(=O)C(Cc1ccccc1)NC(=O)NC(Cc1c[nH]c2ccccc12)C(=O)O)C(=O)NCC1CC(O)C(n2ccc(=O)[nH]c2=O)O1 [Compound 159, 1-[5′-[(2S,3S)-N^2-[N-[[(1S)-1-Carboxy-2-indol-3-ylethyl]carbamoyl]-L-phenylalanyl]l-N^3-L-leucyl-N^3-methyl-2,3-diaminobutyramido]-3′,5′-dideoxy-α-L-arabinofuranosyl]uracil] | 64 (≈ 76.9 µM) | 2 (≈ 2.4 µM) | 128 (≈ 154 µM) | 256 (≈ 308 µM) | >512 | 8 (≈ 9.62 µM) | >512 | >512 | 30 (≈ 36.1 µM) | 64 (≈ 76.9 µM) | 30 (≈ 36.1 µM) | 256 (≈ 308 µM) | 128 (≈ 154 µM) | 8 (≈ 9.62 µM) |  | 
CC(N)C(=O)N(C)C(C)C(NC(=O)C(Cc1ccccc1)NC(=O)NC(Cc1ccc2ccccc2c1)C(=O)O)C(=O)NCC1CC(O)C(n2ccc(=O)[nH]c2=O)O1 [Compound 133, 1-[5′-[(2S,3S)-N^3-L-Alanyl-N^2-[N-[[(1S)-1-carboxy-2-naphthalenethyl]carbamoyl]-L-phenylalanyl]-N^3-methyl-2,3-diaminobutyramido]-3′,5′-dideoxy-α-L-arabinofuranosyl]uracil] | 32 (≈ 40 µM) | <1 | 64 (≈ 79.9 µM) | >512 | 128 (≈ 160 µM) | 32 (≈ 40 µM) | 256 (≈ 320 µM) | 256 (≈ 320 µM) | 30 (≈ 37.5 µM) | 32 (≈ 40 µM) | 30 (≈ 37.5 µM) | >512 | 256 (≈ 320 µM) | 8 (≈ 9.99 µM) |  | 
tunicamycin |  |  |  |  |  |  |  |  |  |  |  |  |  |  |  | action on mammalian enzymes / lipid-linked saccharide formation (in words) [7]: also target mammalian enzymes; translocase inhibition (in words) [8]: translocase inhibitors
Dihydropacidamycin D [Compound 3] | 32 | 2 | 16 | >512 | 256 | 8 | 512 | 128 |  |  |  |  |  |  | displayed the antibacterial spectrum of pacidamycin D | inhibition of E. coli translocase (in words) (E. coli translocase): inhibitor of E. coli translocase
